The subject of assay [1] is formalin-induced flinching and licking of the affected paw. Kind of assay: rat formalin paw test (late phase). It is filed as in vivo. The procedure:
Rats were given an intraplantar injection of 5% formalin (50 μl) into the posterior left paw. This treatment induces a recognizable flinching and licking response of the affected paw in control animals. The number of flinches was counted for 15 minutes, beginning 20 minutes after injection of formalin. The time spent licking the affected paw was also recorded.
Male Rj: Wistar (Han) rats, 10 per group, weighing 100-130 g at the beginning of the experiments were studied per group. The test was performed blind.
Lacosamide (20 mg/kg), gabapentin (50 and 100 mg/kg), combinations of lacosamide (20 mg/kg) with gabapentin (50 and 100 mg/kg), and vehicle were administered i.p. 10 minutes before injection of formalin.
Lacosamide (10 and 20 mg/kg), morphine (2 and 4 mg/kg), combinations of lacosamide (10 and 20 mg/kg) with morphine (2 and 4 mg/kg), and vehicle were administered i.p. 10 minutes before injection of formalin.
Lacosamide (10 mg/kg), duloxetine (8 mg/kg), a combination of lacosamide (10 mg/kg) with duloxetine (8 mg/kg), and vehicle were administered i.p. 10 minutes before injection of formalin.
Lacosamide (10 and 20 mg/kg), memantine (4 and 8 mg/kg), combinations of lacosamide (10 and 20 mg/kg) with memantine (4 and 8 mg/kg), and vehicle were administered i.p. 10 minutes before injection of formalin.
Lacosamide (10 and 20 mg/kg), naproxen (8 and 16 mg/kg), combinations of lacosamide (10 and 20 mg/kg) with […] (8 and 16 mg/kg), and vehicle were administered i.p. 10 minutes before injection of formalin. Morphine (8 mg/kg) was included as a comparative treatment.

Assay [2] has as its system muscle pressure hyperalgesia induced by TNF. Kind of assay: TNF-induced muscle pressure hyperalgesia (Randall-Selitto, gastrocnemius muscle). It is filed as in vivo, rat. The settings on record: for reversal of muscular mechanical hyperalgesia (withdrawal threshold to muscle pressure): TNF 1 μg i.m. gastrocnemius; for full reversal of the muscle hyperalgesia: doses tested (pregabalin 30, 100 mg/kg; gabapentin 100 mg/kg i.p.). From the text: (§1) The model used in this example is applicable to musculoskeletal pain which occurs in fibromyalgia, myofascial pain syndrome or back pain. For comparative purposes, the non-opioid analgesic dipyrone (metamizol) and the anticonvulsants pregabalin and gabapentin were included in the study.
(§2) Adult male Sprague Dawley rats with a body weight of 250 g to 300 g were used (supplier: Charles River, Sulzfeld, Germany). Animals were group-housed (3 animals per cage) and maintained in a room with controlled temperature (21-22° C.) and a reversed light-dark cycle (12 h/12 h) with food and water available ad libitum. All experiments were approved by the Bavarian State animal experimentation committee and carried out in accordance with its regulations.
(§3) Recombinant rat tumor necrosis factor alpha (herein referred to as TNF) was obtained from R&D Systems, Minneapolis, Minn., U.S.A. TNF was diluted in 0.9% NaCl and used in a concentration of 1 μg in 50 μl. Injections were performed in short halothane narcosis with a 30 g needle bilaterally into the gastrocnemius or into the biceps brachii muscle. All rats were used to the behavioral tests before injections and baseline values were recorded over three test days.
Mechanical withdrawal thresholds to muscle pressure were measured with an analgesimeter (Ugo Basile, Comerio, Italy). The rat was allowed to crawl into a sock which helps the rat to relax. The hind limbs were positioned such that an increasing pressure could be applied onto the gastrocnemius muscle (maximum 250 g). The pressure needed to elicit withdrawal was recorded. Means of 3 trials for each hind limb were calculated (interstimulus interval of >30 sec). Only animals with a significant TNF effect were included for further analysis.
Rats were injected with TNF into the gastrocnemius muscle at 2 pm. Eighteen hours later, rats were tested for pressure hyperalgesia pre- and post-administration of the test drug. Rats were tested for pressure hyperalgesia 30 to 60 minutes after drug administration.
(§4) The rats, initially 10 per group, were treated with either 3, 10 or 30 mg/kg lacosamide, 2 mg/kg metamizol, 30 or 100 mg/kg pregabalin, 100 mg/kg gabapentin, or the NaCl vehicle, i.p. (intraperitoneally). Volume of i.p. injections was 0.5 ml. A pilot study was performed to confirm that i.m. (intramuscular) injection of 1 μg TNF into the gastrocnemius muscle was sufficient to induce pressure hyperalgesia.
(§5) Data are shown in graphs displaying means and standard errors of the means (SEM). Pre- and post-treatment data were compared using ANOVA (analysis of variance) and a Tukey post hoc test. Means of treatment groups were compared using a one-way ANOVA and Dunnett's post hoc test. Maximal possible effects (MPE) were calculated for all types of treatment.

For assay [3], the system named is TNF-induced reduction of grip strength. Kind of assay: biceps muscle grip strength after TNF-induced muscle pain. The class given is in vivo, rat. Particulars: for reversal of TNF-induced reduction of grip strength: TNF 1 μg i.m. biceps brachii.
Description: as §1, §2, §3
Grip strength of the forelimbs was tested with a digital grip force meter (DFIS series, Chatillon, Greensboro, N.C., U.S.A.). The rat was positioned to grab the grid with the forelimbs and was gently pulled so that the grip strength could be recorded. Means of three trials were calculated. The effect of the TNF treatment was calculated for each animal separately and only animals with a significant TNF effect were included for further analysis.
Rats were injected with TNF into the biceps brachii muscle at 8 am. Six hours later, grip strength of the forelimbs was tested with a digital grip force meter. Test drug was administered, and grip strength was again tested after 30 to 60 minutes.
as §4, §5

The test system of assay [4] is monosodium iodoacetate-induced mechanical hyperalgesia. Description: monosodium iodoacetate-induced mechanical hyperalgesia (Randall-Selitto paw pressure). It is filed as in vivo, rat. The settings on record: for mechanical hyperalgesia (paw pressure withdrawal threshold) compared to iodoacetate/vehicle treated animals: day 3; for mechanical hyperalgesia (paw pressure withdrawal threshold): day 7.

For assay [5], the system named is monosodium iodoacetate-induced tactile allodynia. Kind of assay: monosodium iodoacetate-induced tactile allodynia (von Frey filaments). The class given is in vivo, rat.
[6] abbreviates: Example 3, gabapentin 50 mg/kg i.p.
Where [7] appears, read: Example 3, gabapentin 100 mg/kg i.p.
The mark [8] stands for this setting: Example 4, morphine 2 mg/kg i.p.
[9] abbreviates: Example 4, morphine 4 mg/kg i.p.
Where [10] appears, read: Example 7, morphine 8 mg/kg i.p.
Where [11] appears, read: 3 mg/kg (lacosamide p.o., morphine s.c.).
The mark [12] stands for this setting: Example 5, duloxetine 8 mg/kg i.p.

Entries after “also recorded” stand apart in the source; their conditions may differ.

With `CC12CC3CC(C)(C1)CC(N)(C3)C2` [Memantine, memantine, reference compound], the “effect on the number of flinches as compared with vehicle controls” value in assay [1] (Example 6, memantine 4 and 8 mg/kg i.p.) was “did not clearly affect”.

As for `NCC1(CC(=O)O)CCCCC1` [Gabapentin, gabapentin, reference compound], in assay [2] (100 mg/kg i.p.), the “MPE (maximal possible effect) on muscle pressure hyperalgesia, versus vehicle” value is given as “significantly different from vehicle” and the “reversal of muscular mechanical hyperalgesia (withdrawal threshold to muscle pressure)” value was “significant reversal”. Also, in assay [2], the “full reversal of the muscle hyperalgesia” value is “Neither pregabalin nor gabapentin led to a full reversal”. In addition, in assay [1] (setting [6]), the “Licking time % change (a): compared with vehicle control” value (“Licking time % change” for short) is reported as −28%, the “Licking time (seconds) mean ± SEM” value was 161.0 ± 27.3 s, the “No. of flinches % change (a): compared with vehicle control” value (“No. of flinches % change” below) is reported as −24% and the “No. of flinches mean ± SEM” value is 97.4 ± 23.8. Further, in assay [1] (setting [6]), the “decrease in the number of flinches as compared with vehicle controls” value worked out at 24% and the “decrease in the time spent licking as compared with vehicle controls” value is given as 28%. Also, in assay [1] (setting [7]), the “Licking time % change” value is recorded as −60%, the “Licking time (seconds) mean ± SEM” value worked out at 90.0 ± 22.5 s, the “No. of flinches % change” value is listed as −31% and the “No. of flinches mean ± SEM” value came to 88.1 ± 19.4. Also, in assay [1] (setting [7]), the “decrease in the number of flinches as compared with vehicle controls” value amounted to 31% and the “decrease in the time spent licking as compared with vehicle controls” value is reported as 60%. In assay [3] (100 mg/kg i.p.), the “MPE (maximal possible effect) on biceps muscle grip strength, versus vehicle” value was “significantly different from vehicle”. For the same molecule, the “reversal of TNF-induced reduction of grip strength” value in assay [3] (100 mg/kg i.p., 100 mg/kg) is given as “significant reversal; also recorded: improved grip strength”.

In the case of `CN1CC[C@]23c4c5ccc(O)c4O[C@H]2[C@@H](O)C=C[C@H]3[C@H]1C5` [Morphine, morphine, reference compound], in assay [1] (setting [8]), the “Licking time % change” value is −1%, the “Licking time (seconds) mean ± SEM” value came to 289.3 ± 30.7 s, the “No. of flinches % change” value is −7% and the “No. of flinches mean ± SEM” value came out at 139.5 ± 25.3. In assay [1] (setting [9]), the “Licking time % change” value is on record as −20%, the “Licking time (seconds) mean ± SEM” value worked out at 234.9 ± 37.3 s, the “No. of flinches % change” value is on record as −37% and the “No. of flinches mean ± SEM” value came out at 94.3 ± 21.1. The “effects on the number of flinches and the time spent licking as compared with vehicle controls” value in assay [1] (Example 4, morphine 2 and 4 mg/kg i.p.) was “did not reach statistical significance”. Also, in assay [1] (setting [10]), the “Licking time % change” value is reported as −100%, the “Licking time (seconds) mean ± SEM” value came out at 0.0 ± 0.0 s, the “No. of flinches % change” value is given as −100% and the “No. of flinches mean ± SEM” value was determined as 0.2 ± 0.1. Further, the “effect on flinching and the time spent licking as compared with vehicle controls” value in assay [1] (setting [10]) is listed as “eliminated”. Also, in assay [4] (setting [11]), the “mechanical hyperalgesia (paw pressure withdrawal threshold) compared to iodoacetate/vehicle treated animals” value is “increase in paw pressure withdrawal threshold” and the “mechanical hyperalgesia (paw pressure withdrawal threshold)” value is recorded as “reduced mechanical hyperalgesia”. Moreover, the “tactile allodynia of iodoacetate-treated rats” value (from here on “tactile allodynia”) in assay [5] (day 3, 3 mg/kg s.c.) is recorded as “improved”. For the same molecule, the “tactile allodynia” value in assay [5] (day 7, 3 mg/kg s.c.) is “improved”. In addition, in assay [5] (day 14, 3 mg/kg s.c.), the “tactile allodynia” value is reported as “not on day 14”.

Take `COc1ccc2cc([C@H](C)C(=O)O)ccc2c1` [Naproxen, naproxen, reference compound]: the “effect on the number of flinches or the time spent licking as compared with vehicle controls” value in assay [1] (Example 7, naproxen 8 and 16 mg/kg i.p.) was “did not clearly affect”.

As for `Cc1c(N(C)CS(=O)(=O)O)c(=O)n(-c2ccccc2)n1C` [metamizol], in assay [2] (2 mg/kg i.p.), the “MPE (maximal possible effect) on muscle pressure hyperalgesia, versus vehicle” value is reported as “significantly different from vehicle” and the “reversal of muscular mechanical hyperalgesia (withdrawal threshold to muscle pressure)” value is reported as “complete reversal”. Moreover, in assay [3] (2 mg/kg i.p.), the “MPE (maximal possible effect) on biceps muscle grip strength, versus vehicle” value was “significantly different from vehicle” and the “reversal of TNF-induced reduction of grip strength” value is listed as “significant reversal”.

Consider `CNCC[C@H](Oc1cccc2ccccc12)c1cccs1` [Duloxetine, duloxetine, reference compound], for which, in assay [1] (setting [12]), the “Licking time % change” value was −26%, the “Licking time (seconds) mean ± SEM” value amounted to 195.5 ± 45.0 s, the “No. of flinches % change” value is given as −1% and the “No. of flinches mean ± SEM” value is given as 149.6 ± 27.3. For the same molecule, in assay [1] (setting [12]), the “effects on number of flinches and time spent licking” value is reported as “no clear effects”.

`O=C(O)Cc1ccccc1Nc1c(Cl)cccc1Cl` [Diclofenac, diclofenac]: the “mechanical hyperalgesia (paw pressure withdrawal threshold) compared to iodoacetate/vehicle treated animals” value in assay [4] (30 mg/kg s.c.) is on record as “increase in paw pressure withdrawal threshold”. Further, the “mechanical hyperalgesia (paw pressure withdrawal threshold)” value in assay [4] (30 mg/kg (lacosamide p.o., diclofenac s.c.)) is recorded as “reduced mechanical hyperalgesia”. The “tactile allodynia” value in assay [5] (day 3, 30 mg/kg (lacosamide p.o., diclofenac s.c.)) is recorded as “no effect”; in assay [5] (day 7, 30 mg/kg (lacosamide p.o., diclofenac s.c.)) it was “no effect”; in assay [5] (day 14, 30 mg/kg (lacosamide p.o., diclofenac s.c.)), “no effect”.

`CC(C)C[C@H](CN)CC(=O)O` [pregabalin]: the “MPE (maximal possible effect) on muscle pressure hyperalgesia, versus vehicle” value in assay [2] (30 mg/kg i.p.) and in assay [2] (100 mg/kg i.p.) was “significantly different from vehicle” each time. In addition, the “reversal of muscular mechanical hyperalgesia (withdrawal threshold to muscle pressure)” value in assay [2] (30 mg/kg i.p.) and in assay [2] (100 mg/kg i.p.) was “significant reversal” each time. Besides, the “full reversal of the muscle hyperalgesia” value in assay [2] was “Neither pregabalin nor gabapentin led to a full reversal”. Moreover, the “MPE (maximal possible effect) on biceps muscle grip strength, versus vehicle” value in assay [3] (100 mg/kg i.p.) is “significantly different from vehicle”. Also, the “reversal of TNF-induced reduction of grip strength” value in assay [3] (100 mg/kg i.p., 100 mg/kg) is reported as “significant reversal; also recorded: improved grip strength”.

For the origin of these results see US20070197657A1, “Method for treating non-inflammatory musculoskeletal pain” (SRZ Properties, Inc., priority 2005, published 2007).
